# Measured values as given in ChEMBL document CHEMBL5725391, “1,3-diaminocyclopentane carboxamide derivatives” (2017).
# Biological target: Fatty acid synthase (Homo sapiens, UniProt P49327)
# Assay: Biochemical Assay of FASN: The biochemical FASN activity testing was performed as 384 well two-time-point kinetic fluorescence intensity assay format in Greiner low volume medium binding 384-well black microtiter plates in a total assay volume of 8 μl and was used for high throughput screen. In each well 3 μl 40 nM human recombinant full-length fatty acid synthase (produced in-house in SF9 cells) were dispensed in the following assay buffer: 50 mM potassium phosphate buffer pH 7.0, 0.005% (w/v) BSA, 2 mM Glutathione, 0.02% Tween-20. Then 2 μl of 200 μM NADPH in assay buffer were added, followed by the addition of the test compounds in 10 dilution concentrations starting with 30 μM (final concentration) to get a final DMSO content of 1% (v/v). The mixture was incubated for at least 15 min at room temperature. After the pre-incubation the enzymatic reaction was started by the addition of 2 μl substrate solution (80 μM acetyl-CoA, 240 μM malonyl-CoA). A first fluorescence intensity measurement (time point one) was performed with an Envision multimode reader (Perkin Elmer LAS Germany GmbH) at excitation wavelength 340 nm (lamp mode) and emission wavelength 460 nm. The reaction was incubated for 30 minutes at room temperature. After this the fluorescence intensity was measured again in the Envision using the same parameters as described above (second time point measurement). The data were analysed by subtracting the first time point measurement value from the second time point measurement value (after the enzymatic reaction). The differences of the emission signals were determined. These reflect directly the conversion rate of NADPH. The full value used was the inhibitor-free reaction. A pharmacological zero value was used like GSK837149A (Sigma-Aldrich) in a final concentration of 5-10 μM. The inhibitory values (IC50) were determined using either the program Symyx Assay Explorer® or Condosseo® from GeneData.
# Fatty acid synthase, sequence (P49327 whole entry): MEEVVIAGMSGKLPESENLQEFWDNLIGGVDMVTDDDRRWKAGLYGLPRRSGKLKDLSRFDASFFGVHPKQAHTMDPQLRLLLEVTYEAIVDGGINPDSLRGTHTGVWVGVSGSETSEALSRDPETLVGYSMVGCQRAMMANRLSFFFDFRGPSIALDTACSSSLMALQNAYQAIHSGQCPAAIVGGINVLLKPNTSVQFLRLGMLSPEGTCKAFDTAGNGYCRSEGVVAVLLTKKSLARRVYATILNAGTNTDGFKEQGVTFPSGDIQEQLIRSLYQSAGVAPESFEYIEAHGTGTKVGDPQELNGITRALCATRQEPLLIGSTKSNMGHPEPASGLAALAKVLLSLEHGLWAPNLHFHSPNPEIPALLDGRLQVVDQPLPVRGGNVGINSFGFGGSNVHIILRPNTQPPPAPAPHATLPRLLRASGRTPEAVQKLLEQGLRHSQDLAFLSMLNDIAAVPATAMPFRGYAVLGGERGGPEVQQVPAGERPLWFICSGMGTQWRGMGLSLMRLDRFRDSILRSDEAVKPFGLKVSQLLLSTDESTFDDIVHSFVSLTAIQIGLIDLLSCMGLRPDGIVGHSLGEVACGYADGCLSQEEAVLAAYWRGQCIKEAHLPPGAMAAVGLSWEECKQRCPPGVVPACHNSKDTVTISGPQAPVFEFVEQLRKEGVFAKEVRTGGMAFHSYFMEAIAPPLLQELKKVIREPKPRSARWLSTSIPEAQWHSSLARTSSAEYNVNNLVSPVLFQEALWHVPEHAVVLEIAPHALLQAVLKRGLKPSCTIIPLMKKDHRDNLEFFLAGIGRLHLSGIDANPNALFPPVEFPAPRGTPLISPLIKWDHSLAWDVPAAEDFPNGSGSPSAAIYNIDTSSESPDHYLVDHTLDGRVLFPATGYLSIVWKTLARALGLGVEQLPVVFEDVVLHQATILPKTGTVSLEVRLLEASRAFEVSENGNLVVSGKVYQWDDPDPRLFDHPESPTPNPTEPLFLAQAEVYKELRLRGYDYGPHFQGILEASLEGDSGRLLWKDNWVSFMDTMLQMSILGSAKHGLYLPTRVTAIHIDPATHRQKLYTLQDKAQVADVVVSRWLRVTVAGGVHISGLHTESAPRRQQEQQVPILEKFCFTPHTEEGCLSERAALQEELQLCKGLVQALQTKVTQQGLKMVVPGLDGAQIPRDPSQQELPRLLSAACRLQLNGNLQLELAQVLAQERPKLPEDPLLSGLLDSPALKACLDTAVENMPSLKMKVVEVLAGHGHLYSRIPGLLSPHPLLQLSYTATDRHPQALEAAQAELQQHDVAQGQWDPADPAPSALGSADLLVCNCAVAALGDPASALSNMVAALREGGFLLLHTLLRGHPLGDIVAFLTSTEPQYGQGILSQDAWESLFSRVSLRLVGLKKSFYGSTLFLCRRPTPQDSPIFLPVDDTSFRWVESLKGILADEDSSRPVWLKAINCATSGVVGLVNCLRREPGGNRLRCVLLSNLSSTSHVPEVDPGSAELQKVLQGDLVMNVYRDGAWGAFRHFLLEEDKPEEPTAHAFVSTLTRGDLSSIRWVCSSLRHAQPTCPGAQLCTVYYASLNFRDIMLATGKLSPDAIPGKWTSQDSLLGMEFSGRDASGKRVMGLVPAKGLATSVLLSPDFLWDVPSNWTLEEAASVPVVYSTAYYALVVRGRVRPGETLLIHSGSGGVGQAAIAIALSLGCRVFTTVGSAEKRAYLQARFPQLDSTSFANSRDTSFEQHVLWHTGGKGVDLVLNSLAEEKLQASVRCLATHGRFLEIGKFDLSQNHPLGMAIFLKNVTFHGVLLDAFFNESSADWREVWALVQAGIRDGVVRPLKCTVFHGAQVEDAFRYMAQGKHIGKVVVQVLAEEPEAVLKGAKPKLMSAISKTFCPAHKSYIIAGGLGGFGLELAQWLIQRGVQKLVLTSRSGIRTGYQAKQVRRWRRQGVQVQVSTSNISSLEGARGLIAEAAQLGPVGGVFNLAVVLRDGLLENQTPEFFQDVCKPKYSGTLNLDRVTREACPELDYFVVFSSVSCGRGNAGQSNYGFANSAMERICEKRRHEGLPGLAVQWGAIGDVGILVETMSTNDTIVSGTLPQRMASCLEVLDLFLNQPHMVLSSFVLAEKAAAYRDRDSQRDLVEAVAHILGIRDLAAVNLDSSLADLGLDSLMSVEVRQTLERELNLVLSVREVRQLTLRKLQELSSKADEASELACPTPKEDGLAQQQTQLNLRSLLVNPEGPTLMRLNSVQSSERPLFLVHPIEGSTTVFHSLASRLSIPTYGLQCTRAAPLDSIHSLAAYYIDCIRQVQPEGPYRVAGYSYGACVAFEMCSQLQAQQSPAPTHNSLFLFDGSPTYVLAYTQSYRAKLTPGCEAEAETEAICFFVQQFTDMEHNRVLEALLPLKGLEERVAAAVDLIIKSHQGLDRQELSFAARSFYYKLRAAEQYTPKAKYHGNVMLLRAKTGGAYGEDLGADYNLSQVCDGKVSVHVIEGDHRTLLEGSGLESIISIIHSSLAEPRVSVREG
row,Compound,IC50 [µM]
1,CCC(=O)N[C@H]1CC[C@@H](N(C)C(=O)c2cnc(-c3ccc4[nH]ccc4c3)s2)C1,< 0.3
2,CCC(=O)N[C@H]1CC[C@@H](N(C)C(=O)c2sc(-c3ccc4[nH]ccc4c3)nc2C)C1,< 0.3
3,CCC(=O)N[C@H]1CC[C@@H](N(C)C(=O)c2ccc(-c3cccc4[nH]ncc34)cc2)C1,< 0.3

# Now from value to compound:
row,IC50 [µM],Compound
1,< 0.3,CCC(=O)N[C@H]1CC[C@@H](N(C)C(=O)c2ccc(-c3cc(F)c4[nH]cc(C(N)=O)c4c3)cc2)C1
2,< 0.3,CN(C(=O)c1ccc(-c2nc3ccccc3o2)cc1F)[C@@H]1CC[C@H](NC(=O)[C@@H]2CCCO2)C1
3,< 0.3,CCC(=O)N[C@H]1CC[C@@H](N(C)C(=O)c2ccc(-c3ccc4[nH]cc(F)c4c3)nc2)C1
4,< 0.3,CCC(=O)N[C@H]1CC[C@@H](N(C)C(=O)c2ccc(-c3ccc(C#N)cc3F)cc2)C1
